# Source: PubChem BioAssay (NCI)
#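 1) Cells in 96-well plates. 2) Compound, 48 h, 5 concentrations. 3) Linear interpolation between surrounding doses. 4) Unreached endpoint = highest concentration. GI50 = concentration required for 50% inhibition of growth. TGI: total growth inhibition.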
# Experiments:
# Assay in all cases: NCI anticancer screen, dose series, 48 h
# SF-539 CNS = tested on: SF-539 CNS
# SK-OV-3 ovarian = tested on: SK-OV-3 ovarian
# CAKI-1 renal = tested on: CAKI-1 renal
# HCT-15 colon = tested on: HCT-15 colon
# HT29 colon = tested on: HT29 colon
# A498 renal = tested on: A498 renal
# HCC-2998 colon = tested on: HCC-2998 colon
# OVCAR-4 ovarian = tested on: OVCAR-4 ovarian
# SR leukemia = tested on: SR leukemia
# 786-0 renal = tested on: 786-0 renal
Compound,GI50 (SF-539 CNS),TGI (SF-539 CNS),GI50 (SK-OV-3 ovarian),TGI (SK-OV-3 ovarian),GI50 (CAKI-1 renal),TGI (CAKI-1 renal),GI50 (HCT-15 colon),TGI (HCT-15 colon),GI50 (HT29 colon),TGI (HT29 colon),GI50 (A498 renal),TGI (A498 renal),GI50 (HCC-2998 colon),TGI (HCC-2998 colon),GI50 (OVCAR-4 ovarian),TGI (OVCAR-4 ovarian),GI50 (SR leukemia),TGI (SR leukemia),GI50 (786-0 renal),TGI (786-0 renal)
CC/C=C\C/C=C/C=C1/C(=O)C=C[C@@H]1C/C=C\CCCC(=O)OC,3.04 µM,10 µM,9.25 µM,49.9 µM,3.22 µM,10.7 µM,2.2 µM,7.89 µM,2.21 µM,5.57 µM,8.68 µM,23 µM,2.03 µM,3.62 µM,4.24 µM,17.3 µM,0.398 µM,15.5 µM,2.71 µM,6.91 µM
Cn1nnc2c(C(N)=O)ncn2c1=O,–,> 100 µM,–,100 µM,–,> 100 µM,–,> 100 µM,–,> 100 µM,> 100 µM,> 100 µM,–,> 100 µM,–,> 100 µM,–,> 100 µM,–,> 100 µM
O=C(NN1C(=O)CSC1c1ccc(F)cc1)C(O)c1ccccc1 (stereo unspecified),> 100 µM,> 100 µM,> 100 µM,> 100 µM,> 100 µM,> 100 µM,> 100 µM,> 100 µM,> 100 µM,> 100 µM,> 100 µM,> 100 µM,> 100 µM,> 100 µM,> 100 µM,> 100 µM,60.8 µM,> 100 µM,> 100 µM,> 100 µM
NNc1c2ccccc2nc2ccccc12,3.73 µM,22.9 µM,6.91 µM,> 100 µM,3.29 µM,19.4 µM,4.2 µM,34.2 µM,3.28 µM,16.1 µM,1.43 µM,17.5 µM,7.59 µM,63.2 µM,2.62 µM,19.4 µM,3.4 µM,19.8 µM,6.2 µM,29.4 µM
CC(=O)OC(C)C(OC(C)=O)C(OC(C)=O)C(/C=C/C1CC=CC(=O)O1)OC(C)=O (stereo unspecified),21.5 µM,43.5 µM,78 µM,> 100 µM,43.3 µM,> 100 µM,32.2 µM,> 100 µM,15.8 µM,47.7 µM,16.9 µM,45.3 µM,22.9 µM,45.3 µM,17.2 µM,56.1 µM,19.4 µM,53.4 µM,37.8 µM,> 100 µM
Cc1cccc2c(Nc3ccc(NS(C)(=O)=O)cc3)c3ccc([N+](=O)[O-])cc3nc12,1.07 µM,11.4 µM,2.4 µM,17.1 µM,2.43 µM,24 µM,1.19 µM,3.54 µM,1.59 µM,3.47 µM,0.703 µM,3.81 µM,1.49 µM,3.11 µM,1.9 µM,6.38 µM,0.0598 µM,2.69 µM,0.738 µM,4.45 µM
Nc1n[nH]c(N)c1N=Nc1ccc(O)cc1,13.1 µM,36.4 µM,49.2 µM,> 100 µM,14.7 µM,63.9 µM,24.2 µM,90.6 µM,29.7 µM,> 100 µM,18.2 µM,43.7 µM,29.4 µM,> 100 µM,19 µM,74.7 µM,10.3 µM,59.8 µM,26.3 µM,> 100 µM
NC(=O)C12CC3CC(CC(Br)(C3)C1)C2,–,> 100 µM,–,> 100 µM,–,> 100 µM,–,> 100 µM,–,> 100 µM,–,> 100 µM,–,> 100 µM,–,> 100 µM,–,> 100 µM,–,> 100 µM
CCC[CH2][Sn]([CH2]CCC)([O]C(=O)/C=C/c1ccccc1F)[O]C(=O)/C=C/c1ccccc1F,1.27 µM,2.56 µM,2.04 µM,4.48 µM,0.436 µM,1.79 µM,0.74 µM,1.95 µM,1.58 µM,3.07 µM,1.09 µM,2.29 µM,1.06 µM,2.29 µM,1.45 µM,2.9 µM,0.305 µM,2.1 µM,0.384 µM,1.17 µM
CCN(CC)CCCC(C)Nc1c(-c2ccccc2)cnc2cc(Cl)ccc12 (stereo unspecified),4.36 µM,16.3 µM,15.3 µM,33.5 µM,2.12 µM,10.9 µM,3.62 µM,13.6 µM,2.74 µM,11.5 µM,2.71 µM,13.8 µM,2.34 µM,5.62 µM,10.3 µM,36.4 µM,3.14 µM,> 24.6 µM,6.38 µM,20.6 µM
COc1cc(/C=C/[N+](=O)[O-])cc(OC)c1OC,2.19 µM,4.36 µM,4.79 µM,16.1 µM,1.49 µM,7.39 µM,1.96 µM,5.04 µM,2.2 µM,4.81 µM,3.31 µM,14.6 µM,1.82 µM,3.31 µM,3.22 µM,11.5 µM,3.36 µM,12.5 µM,1.9 µM,3.53 µM
CN(c1ccc(C#N)c(Cl)c1)C1CCC(NC(=O)c2ccc(N3CCN(C4CN(c5ccc6c(c5)C(=O)N(C5CCC(=O)NC5=O)C6=O)C4)CC3)cc2)CC1 (stereo unspecified),> 100 µM,> 100 µM,> 100 µM,> 100 µM,> 100 µM,> 100 µM,> 100 µM,> 100 µM,> 100 µM,> 100 µM,> 100 µM,> 100 µM,> 100 µM,> 100 µM,> 100 µM,> 100 µM,> 100 µM,> 100 µM,> 100 µM,> 100 µM
C#C[C@H]1CCCCCC1O (stereo partly specified),–,> 100 µM,–,> 100 µM,–,> 100 µM,–,> 100 µM,–,> 100 µM,–,> 100 µM,–,> 100 µM,–,> 100 µM,–,> 100 µM,–,> 100 µM
O=C1CCC(N2C(=O)c3cccc(NCCCC4CCN(CCNC(=O)c5cc6c(o5)C(=O)c5ccccc5C6=O)CC4)c3C2=O)C(=O)N1 (stereo unspecified),1.32 µM,2.59 µM,2.88 µM,8.52 µM,2.17 µM,9.13 µM,0.825 µM,2.41 µM,0.823 µM,8.81 µM,1.41 µM,2.75 µM,0.695 µM,1.81 µM,0.747 µM,2.08 µM,0.106 µM,> 30.1 µM,1.44 µM,3.17 µM
O=c1c(O)cccn1CCCN(CCCn1cccc(O)c1=O)CCn1cccc(O)c1=O,3.12 µM,> 100 µM,3.37 µM,> 100 µM,4.79 µM,> 100 µM,10.3 µM,> 100 µM,29.5 µM,> 100 µM,22.9 µM,> 100 µM,5.18 µM,> 100 µM,3.95 µM,> 100 µM,0.522 µM,> 100 µM,7.81 µM,> 100 µM
CC1=C(Cl)C[C@@H](/C(C)=C\Cl)O[C@@]1(O)C(Br)Br,–,> 100 µM,–,> 100 µM,–,35.4 µM,–,32.4 µM,–,> 100 µM,–,98.4 µM,–,99.6 µM,–,> 100 µM,–,84.6 µM,–,> 100 µM
COC/N=C(/N)NC#N,–,> 100 µM,–,> 100 µM,–,> 100 µM,–,31 µM,–,> 100 µM,–,> 100 µM,–,> 100 µM,–,> 100 µM,–,53.4 µM,–,> 100 µM
N#CC(C#N)=C(N)/C(C#N)=C/c1ccc2[nH]ccc2c1,–,> 100 µM,–,> 100 µM,–,> 100 µM,–,> 100 µM,–,> 100 µM,–,> 100 µM,–,> 100 µM,–,> 100 µM,–,> 100 µM,–,> 100 µM
C=C1C(=O)O[C@H]2[C@H]1CC/C(CNC(=O)/C=C/c1ccccc1)=C\CC[C@@]1(C)O[C@@H]21,0.964 µM,2.37 µM,13.2 µM,26 µM,1.17 µM,2.49 µM,0.672 µM,2.06 µM,0.754 µM,3.04 µM,1.96 µM,4 µM,1.78 µM,3.31 µM,1.51 µM,4.14 µM,0.38 µM,4.97 µM,1.48 µM,3.69 µM
